Measured values from patent publication US20240117385A1, “ENZYMES OF LUCIFERIN BIOSYNTHESIS AND USE THEREOF” (LIGHT BIO, INC., priority 2018, published 2024).

Columns and labels:
HEK293NT cells = experiment: Luminescence of HEK293NT cells expressing hispidin hydroxylase and luciferase on adding hispidin; assay type: cell-based, human; conditions: hispidin 800 μg/ml, 24 hours after transfection
[1] = tested on: recombinant hispidin hydroxylase from Neonothopanus nambi; experiment: HPLC analysis of hydroxylation by recombinant hispidin hydroxylase; assay type: biochemical; conditions: 0.2 μM substrate, 1 mM NADPH, 30 minutes
Protocol: The isolated recombinant hispidin hydroxylase from Neonothopanus nambi, obtained according to Example 4, was added to reaction mixtures comprising 1 mM of NADPH and 0.2 μM of hispidin, (E)-4-hydroxy-6-styryl-2H-pyran-2-one or (E)-4-hydroxy-6-(4-hydroxystyryl)-2H-pyran-2-one in 100 μl of the buffer (0.2 M of Na-phosphate buffer, 0.5 M of Na2SO4, 0.1% dodecylmaltoside (DDM) pH 8.0). In 30 minutes, the reaction mixture was analyzed by HPLC using synthetic luciferins as standards.

[2] = tested on: Physcomitrella patens moss; experiment: Bioluminescence of transgenic moss gametophytes soaked in hispidin; assay type: in vivo; conditions: hispidin 900 μg/ml in BCD medium
Text: Coding sequences of Neonothopanus nambi hispidin hydroxylase and luciferase were optimized for expression in Physcomitrella patens moss cells. Then, in silico there was created an expression cassette comprising promoter of rice aktI gene, human cytomegalovirus 5′-untranslated region coding hispidin hydroxylase sequence optimized for expression in plant cells (SEQ ID NO 103), terminating codon, Agrobacterium osc gene terminator sequence, rice ubiquitin promoter, coding sequence of Neonothopanus nambi luciferase (SEQ ID NO 112) optimized for expression in moss cells, Agrobacterium tumefaciens nos gene terminator.
The obtained sequence was synthesized in such a way, that all said fragments appeared to be operatively cross-linked to each other, and cloned by Gibson assembly technique [Gibson et al., Nat Methods, 2009, 6:343-5] into expression vector pLand #1 (Institut Jean-Pierre Bourgin, France), between DNA fragments coincident with locus of Physcomitrella patens moss genomic DNA between sequences of highly expressed moss genes Pp3c16_6440 V3.1 and Pp3c16_6460 V3.1. The vector pLand #1 also comprised a guide RNA (sgRNA) sequence for Cas9 nuclease, complementary to the region of the same DNA locus. […]
The obtained moss gametophytes were soaked in BCD medium comprising hispidin at concentration of 900 μg/ml, and analyzed by means of IVIS Spectrum In Vivo Imaging System (Perkin Elmer).

bioluminescence intensity exceeding the signal of control plants expressing luciferase only [2]: minimum by two orders of magnitude
Compound: O=c1cc(O)cc(/C=C/c2ccc(O)c(O)c2)o1 [hispidin, (E)-6-(3,4-dihydroxystyryl)-4-hydroxy-2H-pyran-2-one]
luminescence intensity exceeding the signal from untransfected control cells (HEK293NT cells): more than by two orders of magnitude | HPLC detection of hydroxylated product [1]: occurrence of peaks corresponding to 3d position hydroxylated derivatives
